Where two headings read alike, the source gives them in different places.
Columns and labels:
MCF7 cells [1] = test: Metabolic flux analysis (Seahorse XFe96, OCR/ECAR), MCF7; assay type: cell-based, Human; conditions: for ECAR levels / basal and maximal OCR, ATP production: adherent MCF7; for basal and maximal OCR, ATP production: 16 hours, versus vehicle-alone control
Procedure: (§1) FIGS. 4A-4D show the metabolic flux analysis results in MCF7 cells, FIGS. 5A-5D show the metabolic flux analysis results in MDA-MB-231 cells, and FIGS. 6A-6D show the metabolic flux analysis results in MDA-MB-468 cells.
(§2) In addition to metabolic flux analysis, glycolytic function was analyzed at different concentrations of MTDR. This included extracellular acidification rate (ECAR) measurements, glycolysis, glycolytic capacity, and glycolytic reserve. FIGS. 7A-7D show the results of glycolytic function in MCF7 cells, including ECAR, glycolysis, glycolytic capacity, and glycolytic reserve, respectively. FIGS. 8A-8D show the results of glycolytic function in MDA-MB-231 cells, including ECAR, glycolysis, glycolytic capacity, and glycolytic reserve, respectively. FIGS. 9A-9D show the results of glycolytic function in MDA-MB-468 cells, including ECAR, glycolysis, glycolytic capacity, and glycolytic reserve, respectively.
To examine the effects of HITC and DDI on mitochondrial respiration and aerobic glycolysis, adherent MCF7 were treated with each compound, and then OCR and ECAR were measured. […] After treatment, the mitochondrial oxygen consumption rate (OCR) was measured using the Seahorse XFe96 analyzer. Data is expressed as percentage of OCR versus control. All data was normalized for cell number. Statistical analysis was conducted using one-way ANOVA.
(§3) Metabolic Flux Analysis: Extracellular acidification rates and oxygen consumption rates were analyzed using the Seahorse XFe96 analyzer (Agilent/Seahorse Bioscience, USA). Cells were maintained in DMEM supplemented with 10% FBS (fetal bovine serum), 2 mM GlutaMAX, and 1% Pen-Strep. Forty-thousand breast cancer cells were seeded per well, into XFe96-well cell culture plates, and incubated at 37° C. in a 5% CO2 humidified atmosphere. After 24-48 hours, MCF7 cells were washed in pre-warmed XF assay media, as previously described. ECAR and OCR measurements were normalized for cell protein content, by the SRB colorimetric assay. Data sets were analyzed using XFe96 software and Excel software.

MCF7 cells [2] = test: 3D-mammosphere formation assay, MCF7; assay type: cell-based, Human
Excerpt: (§4) In order to assess the effects of MTDR on CSC propagation, the mammosphere assay was used as a functional readout of “stemness” and 3D anchorage-independent growth. As CSCs are highly-resistant to many types of cell stress, they can undergo anchorage-independent propagation, under low-attachment conditions. […] These “mammospheres” are highly enriched in CSCs and progenitor-like cells, and highly resemble the morula stage of embryonic development, a solid ball of cells without a hollow lumen. Under these culture conditions of non-attachment, the majority of epithelioid cancer cells die, via an unusual form of apoptosis, known as anoikis.
(§5) As a consequence, the growth of 3D spheroids provides functional culture conditions to select for a population of epithelioid CSCs, with EMT properties. As such this provides an ideal assay for identifying small molecules that can target the anchorage-independent growth of CSCs.
(§6) 3D-Mammosphere Formation Assay: A single cell suspension was prepared using enzymatic (1× Trypsin-EDTA, Sigma Aldrich, cat. #T3924), and manual disaggregation (25 gauge needle). Five thousand cells were plated with in mammosphere medium (DMEM-F12/B27/20 ng/ml EGF/PenStrep), under non-adherent conditions, in six wells plates coated with 2-hydroxyethylmethacrylate (poly-HEMA, Sigma, cat. #P3932). […]

[3] = in vivo; cited from earlier work
MDA-MB-231 cells [4] = conditions: MDA-MB-231 mammosphere formation
Excerpt: as §4, §5, §6

MDA-MB-468 cells [5] = conditions: read-out: IC-50, 3D sphere formation
Excerpt: as §4, §5, §6

MDA-MB-231 cells [6] = conditions: MDA-MB-231 monolayer
Procedure: as §1, §2, §3

MDA-MB-468 cells [7] = conditions: MDA-MB-468 monolayer
Procedure: as §1, §2, §3

MCF7 cells [8] = conditions: read-out: IC-50, cell viability; MCF7 monolayer; Hoechst 33342; 1 nM to 1 μM; FIG. 10
Procedure: (§7) A Hoechst-based viability assay was used to characterize the selectivity of MTDR for the preferential targeting of cancer cells. Briefly, MCF7, MDA-MB-231 and MDA-MB-468 cell monolayers were treated with MTDR, at concentrations ranging from 1 nM to 1 μM, for a period of one day. Cell viability was assessed using Hoechst 33342, a nuclear dye that stains DNA in live cells. The viability of normal human fibroblasts (hTERT-BJ1) treated with MTDR was also assessed in parallel. Quantitation was performed with a plate-reader.
(§8) MCF7, MDA-MB-231 and MDA-MB-468 cell monolayers were treated with MTDR for a period of 72 hours, and viability was assessed using Hoechst 33342, a nuclear dye that stains DNA in live cells. Effects of MTDR on the viability in normal human fibroblasts (hTERT-BJ1) were assessed in parallel.

[9] = system: normal human fibroblasts (hTERT-BJ1); conditions: for IC50: hTERT-BJ1, Hoechst 33342
Procedure: as §7, §8

MDA-MB-231 cells [10] = conditions: read-out: IC-50, cell viability; MDA-MB-231 monolayer; Hoechst 33342; 1 nM to 1 μM; FIG. 10
Procedure: as §7, §8

MDA-MB-468 cells [11] = conditions: read-out: IC-50, cell viability; MDA-MB-468 monolayer; Hoechst 33342; 1 nM to 1 μM; FIG. 10
Procedure: as §7, §8

CCN1/C(=C/C=C/C=C/c2ccc3ccccc3[n+]2CC)C=Cc2ccccc21 [DDI]
ECAR levels (MCF7 cells [1]): did not affect
basal and maximal OCR, ATP production (MCF7 cells [1]): did not affect

CCCN1/C(=C/C=C2\CCCC(/C=C/C3=[N+](CCC)c4ccccc4C3(C)C)=C2Cl)C(C)(C)c2ccccc21 [IR-780]
concentrations with significant inhibition of CSC propagation (3D-mammosphere formation) (MCF7 cells [2]; non-adherent MCF7, 1, 50, 100, 500, 1000 nM, five days): not effective
half-life in serum [3]: minutes to hour

CN1\C(=C/C=C/C=C/C=C/C2=[N+](C)c3ccccc3C2(C)C)C(C)(C)c2ccccc21 [HITC]
ECAR levels (MCF7 cells [1]): increased significantly, at 500 and 1000 nM
basal and maximal OCR, ATP production (MCF7 cells [1]): significantly inhibited

CN1C(=CC=CC=CC2=[N+](Cc3ccc(CCl)cc3)c3ccccc3C2(C)C)C(C)(C)c2ccccc21.[Cl-] [MTDR, 1-{4-[(chloromethyl)phenyl]methyl}-3,3-dimethyl-2-[5-(1,3,3-trimethyl-1,3-dihydro-2H-indol-2-ylidene)penta-1,3-dien-1-yl]-3H-indolium chloride]
IC50 (MCF7 cells [2]; MCF7, MTDR 1 nM to 1,000 nM, 5 days, read-out: IC-50, 3D anchorage-independent growth (mammosphere formation)): < 0.1 µM
concentrations inhibiting anchorage-independent growth (MDA-MB-231 cells [4]): above 100 nM
IC50 (MDA-MB-468 cells [5]): ~0.05 µM
concentration from which near complete inhibition of mitochondrial function and ATP production (MDA-MB-231 cells [6]; OCR): ≥ 500 nM
concentration from which mild-to-moderate inhibition of glycolysis (MDA-MB-231 cells [6]; no significant effect up to 100 nM): ≥ 500 nM
concentration from which near complete inhibition of mitochondrial function and ATP production (MDA-MB-468 cells [7]; OCR): ≥ 500 nM
effect on glycolysis (ECAR) (MDA-MB-468 cells [7]; up to 1 μM): no effect on glycolysis
concentration from which near complete inhibition of mitochondrial function and ATP production (MCF7 cells [1]; MCF7 monolayer, OCR): ≥ 500 nM
effect on glycolysis (ECAR) (MCF7 cells [1]; MCF7 monolayer, up to 1 μM): no effect on glycolysis
IC50 (MCF7 cells [8]): 0.0907 µM
IC50 ([9]; read-out: IC-50, cell viability, 1 nM to 1 μM, FIG. 10): 0.468 µM
IC50 ([9]; read-out: IC-50, normal cell viability, 72 hours): 1 µM
potency and selectivity for breast cancer cells relative to normal fibroblasts ([9]; viability, 72 hours): 10 times
IC50 (MDA-MB-231 cells [10]): 0.399 µM
IC50 (MDA-MB-468 cells [11]): 0.432 µM

— patent US20220249438A1, “CARBOCYANINE COMPOUNDS FOR TARGETING MITOCHONDRIA AND ERADICATING CANCER STEM CELLS” (LUNELLA BIOTECH, INC., priority 2019, published 2022)
